Test results as given in patent US7049313B2, “ATM inhibitors” (Kudos Pharmaceuticals Ltd., priority 2002, dated 2006).
Where a name gives a salt, the structure may show the parent alone.

Molecular target: T1, ATM (Homo sapiens, UniProt Q13315)
T1 construct: ATM protein was immunoprecipitated from HeLa cell nuclear extract; endogenous in cells; host or cells: HeLa cell nuclear extract (immunoprecipitate)
Test: In vitro ATM inhibition assay (phosphorylation of GSTp53N66 on serine 15)
Type: biochemical
Protocol: In vitro ATM inhibition Assays
In order to assess the inhibitory action of the compounds against ATM in vitro, the following assay was used to determine IC50 values.
ATM protein was immunoprecipitated from HeLa cell nuclear extract using rabbit polyclonal anti-sera raised to the C-terminal ˜500 amino-acid residues of the human ATM protein. The immunoprecipitation was performed according to the methodology described by Banin, S. et al. (1998). 10 μl of immunoprecipitated ATM in Buffer C (50 mM Hepes, pH 7.4, 6 mM MgCl2, 150 mM NaCl, 0.1 mM sodium orthovanadate, 4 mM MnCl2, 0.1 mM dithiothreitol, 10% glycerol) was added to 32.5 μl of buffer C containing 1 μg of the ATM substrate GSTp53N66 in a V-bottomed 96 well polypropylene plate. The GSTp53N66 substrate is the amino terminal 66 amino acid residues of human wild type p53 fused to glutathione S-transferase. ATM phosphorylates p53 on the residue serine 15 (Banin, S. et al. (1998)). Varying concentrations of inhibitor were then added. […] After 10 minutes of incubation at 37° C., the reactions were initiated by the addition of 5 μl of 500 μM Na-ATP. After 1 hour with shaking at 37° C., 150 μl of phosphate buffered saline (PBS) was added to the reaction and the plate centrifuged at 1500 rpm for 10 minutes. 5 μl of the reaction was then transferred to a 96 well opaque white plate containing 45 μl of PBS to allow the GSTp53N66 substrate to bind to the plate wells. The plate was covered and incubated at room temperature for 1 hour with shaking before discarding the contents. The plate wells were washed twice by the addition of PBS prior to the addition of 3% (w/v) bovine serum albumin (BSA) in PBS. The plate was incubated at room temperature for 1 hour with shaking before discarding the contents and washing twice with PBS. To the wells, 50 μl of a 1:10,000 dilution of primary phosphoserine-15 antibody (Cell Signaling Technology, #9284L) in 3% BSA/PBS was added to detect the phosphorylation event on the serine 15 residue of p53 elicited by the ATM kinase. After 1 hour of incubation at room temperature with shaking, the wells were washed four times with PBS prior to the addition of an anti-rabbit HRP conjugated secondary antibody (Pierce, 31462) with shaking for 1 hour at room temperature. The wells were then washed four times with PBS before the addition of chemiluminescence reagent (NEN Renaissance, NEL105). The plate was then shaken briefly, covered with a transparent plate seal and transferred to a TopCount NXT for chemiluminescent counting. Counts per second, following a one second counting time, were recorded for each reaction.
The enzyme activity for each compound is then calculated using the following equation: […]

T1 sequence (Q13315 whole entry): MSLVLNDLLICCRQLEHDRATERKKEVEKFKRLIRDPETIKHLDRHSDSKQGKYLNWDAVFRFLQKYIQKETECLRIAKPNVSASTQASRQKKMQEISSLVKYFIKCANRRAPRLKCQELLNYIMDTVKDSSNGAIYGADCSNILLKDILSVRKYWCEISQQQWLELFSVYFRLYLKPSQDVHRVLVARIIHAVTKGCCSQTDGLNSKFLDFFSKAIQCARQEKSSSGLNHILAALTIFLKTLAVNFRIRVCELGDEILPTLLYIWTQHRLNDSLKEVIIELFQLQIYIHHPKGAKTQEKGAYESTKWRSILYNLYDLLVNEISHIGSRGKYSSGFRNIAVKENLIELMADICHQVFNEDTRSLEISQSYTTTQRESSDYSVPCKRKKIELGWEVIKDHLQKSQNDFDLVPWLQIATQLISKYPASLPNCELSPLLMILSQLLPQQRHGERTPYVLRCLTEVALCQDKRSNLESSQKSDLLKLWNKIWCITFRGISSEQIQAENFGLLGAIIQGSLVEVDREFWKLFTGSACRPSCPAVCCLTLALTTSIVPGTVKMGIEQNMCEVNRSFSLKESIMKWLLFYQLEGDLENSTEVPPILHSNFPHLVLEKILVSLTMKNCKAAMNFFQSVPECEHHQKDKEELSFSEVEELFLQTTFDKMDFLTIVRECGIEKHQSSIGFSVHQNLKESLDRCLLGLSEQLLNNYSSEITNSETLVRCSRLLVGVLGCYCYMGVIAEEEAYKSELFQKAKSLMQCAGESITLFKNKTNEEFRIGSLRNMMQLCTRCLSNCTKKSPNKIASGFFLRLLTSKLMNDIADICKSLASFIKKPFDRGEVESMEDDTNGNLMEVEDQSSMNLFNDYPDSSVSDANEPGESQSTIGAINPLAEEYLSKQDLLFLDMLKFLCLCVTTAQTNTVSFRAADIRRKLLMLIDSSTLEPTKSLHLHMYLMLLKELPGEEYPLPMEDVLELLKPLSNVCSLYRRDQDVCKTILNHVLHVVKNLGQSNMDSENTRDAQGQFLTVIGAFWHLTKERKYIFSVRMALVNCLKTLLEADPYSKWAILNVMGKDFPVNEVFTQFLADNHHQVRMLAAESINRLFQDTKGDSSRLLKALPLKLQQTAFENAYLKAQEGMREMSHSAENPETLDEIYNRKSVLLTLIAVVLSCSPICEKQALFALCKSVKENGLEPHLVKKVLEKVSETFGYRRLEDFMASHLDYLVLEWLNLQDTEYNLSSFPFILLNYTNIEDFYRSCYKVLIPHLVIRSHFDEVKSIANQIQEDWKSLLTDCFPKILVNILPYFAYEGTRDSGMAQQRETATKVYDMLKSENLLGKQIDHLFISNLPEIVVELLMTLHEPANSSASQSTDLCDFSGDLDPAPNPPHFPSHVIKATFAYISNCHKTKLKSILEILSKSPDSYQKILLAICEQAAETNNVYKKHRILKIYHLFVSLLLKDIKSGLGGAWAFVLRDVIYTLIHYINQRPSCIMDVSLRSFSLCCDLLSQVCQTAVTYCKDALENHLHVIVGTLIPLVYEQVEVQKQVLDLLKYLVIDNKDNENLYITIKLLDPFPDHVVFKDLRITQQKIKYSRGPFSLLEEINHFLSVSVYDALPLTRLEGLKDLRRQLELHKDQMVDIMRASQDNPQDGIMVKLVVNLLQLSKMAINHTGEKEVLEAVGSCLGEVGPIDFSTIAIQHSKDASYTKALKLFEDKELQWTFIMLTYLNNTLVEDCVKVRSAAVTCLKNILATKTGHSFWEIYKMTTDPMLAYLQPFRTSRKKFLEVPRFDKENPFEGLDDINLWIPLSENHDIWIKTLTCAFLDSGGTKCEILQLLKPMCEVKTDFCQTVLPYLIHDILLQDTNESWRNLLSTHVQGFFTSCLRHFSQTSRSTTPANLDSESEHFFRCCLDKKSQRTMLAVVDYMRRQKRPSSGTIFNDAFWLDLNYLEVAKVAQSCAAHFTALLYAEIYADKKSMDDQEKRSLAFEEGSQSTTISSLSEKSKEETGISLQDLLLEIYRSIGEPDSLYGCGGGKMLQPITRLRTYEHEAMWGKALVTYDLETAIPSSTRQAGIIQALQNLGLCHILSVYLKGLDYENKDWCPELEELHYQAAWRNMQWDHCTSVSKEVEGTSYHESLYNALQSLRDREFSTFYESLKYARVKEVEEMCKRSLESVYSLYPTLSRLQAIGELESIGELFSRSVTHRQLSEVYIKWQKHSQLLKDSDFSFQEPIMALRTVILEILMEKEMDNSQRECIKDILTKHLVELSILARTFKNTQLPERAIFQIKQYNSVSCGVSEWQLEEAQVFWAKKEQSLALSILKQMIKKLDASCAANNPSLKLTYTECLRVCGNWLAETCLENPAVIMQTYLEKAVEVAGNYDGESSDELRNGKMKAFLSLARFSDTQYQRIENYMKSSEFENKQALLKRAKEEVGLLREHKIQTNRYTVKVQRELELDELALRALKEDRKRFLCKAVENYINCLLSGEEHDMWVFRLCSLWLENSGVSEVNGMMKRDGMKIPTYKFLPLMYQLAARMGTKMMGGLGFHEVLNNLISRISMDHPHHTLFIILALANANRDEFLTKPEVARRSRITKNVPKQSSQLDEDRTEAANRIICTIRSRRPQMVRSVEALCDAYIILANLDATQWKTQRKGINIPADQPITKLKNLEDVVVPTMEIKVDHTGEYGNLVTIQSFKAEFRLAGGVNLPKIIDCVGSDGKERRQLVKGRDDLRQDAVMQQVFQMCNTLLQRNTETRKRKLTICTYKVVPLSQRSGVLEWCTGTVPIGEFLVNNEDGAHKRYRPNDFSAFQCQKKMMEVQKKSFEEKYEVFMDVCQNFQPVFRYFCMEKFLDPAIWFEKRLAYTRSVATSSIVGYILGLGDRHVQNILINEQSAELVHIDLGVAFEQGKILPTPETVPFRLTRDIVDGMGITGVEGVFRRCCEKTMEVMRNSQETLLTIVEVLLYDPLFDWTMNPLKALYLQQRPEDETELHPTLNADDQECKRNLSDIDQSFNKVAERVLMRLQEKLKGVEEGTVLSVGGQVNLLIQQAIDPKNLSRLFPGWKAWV

| SMILES | IC50 |
| --- | --- |
| O=C(Nc1ccc2c(c1)Cc1cccc(-c3cc(=O)cc(N4CCOCC4)o3)c1S2)c1cc(F)cc2c1OCOC2 [Compound 44] | < 200 nM |
| O=C(O)C1CC1C(=O)Nc1ccc2c(c1)Cc1cccc(-c3cc(=O)cc(N4CCOCC4)o3)c1S2 (stereo not drawn) [Compound 49] | < 200 nM |
| Cc1cc(C(=O)Nc2ccc3c(c2)Cc2cccc(-c4cc(=O)cc(N5CCOCC5)o4)c2S3)no1 [Compound 45] | < 200 nM |
| COC(=O)CC(=O)Nc1ccc2c(c1)Cc1cccc(-c3cc(=O)cc(N4CCOCC4)o3)c1S2 [Compound 23] | < 200 nM |
| O=C(Nc1ccc2c(c1)Cc1cccc(-c3cc(=O)cc(N4CCOCC4)o3)c1S2)C1CCC1 [Compound 32] | < 200 nM |
| S=c1cc(-c2cccc3c2Sc2ccccc2S3)oc(N2CCOCC2)c1 [Compound 18, 2-Thianthren-1-yl-6-morpholin-4-yl-pyran-4-thione] | < 200 nM |
| CC(=O)Oc1ccccc1C(=O)Nc1ccc2c(c1)Cc1cccc(-c3cc(=O)cc(N4CCOCC4)o3)c1S2 [Compound 37] | < 200 nM |
| COCC(=O)Nc1ccc2c(c1)Cc1cccc(-c3cc(=O)cc(N4CCOCC4)o3)c1S2 [Compound 22] | < 200 nM |
| O=C(CN1CCNCC1)Nc1ccc2c(c1)Cc1cccc(-c3cc(=O)cc(N4CCOCC4)o3)c1S2 [Compound 52] | < 200 nM |
| O=C(CNCCN1CCOCC1)Nc1ccc2c(c1)Cc1cccc(-c3cc(=O)cc(N4CCOCC4)o3)c1S2 [Compound 67] | < 200 nM |
| O=C(O)C(F)(F)C(F)(F)C(=O)Nc1ccc2c(c1)Cc1cccc(-c3cc(=O)cc(N4CCOCC4)o3)c1S2 [Compound 50] | < 200 nM |
| O=c1cc(-c2cccc3c2Oc2ccccc2S3)oc(N2CCOCC2)c1 [Compound 5, 2-Phenoxathiin-4-yl-6-morpholin-4-yl-pyran-4-one] | < 200 nM |
| O=C(Nc1ccc2c(c1)Cc1cccc(-c3cc(=O)cc(N4CCOCC4)o3)c1S2)c1cccs1 [Compound 30] | < 200 nM |
| O=C(CCN1CCNCC1)Nc1ccc2c(c1)Cc1cccc(-c3cc(=O)cc(N4CCOCC4)o3)c1S2 [Compound 70] | < 200 nM |
| CC(=O)OC(C(=O)Nc1ccc2c(c1)Cc1cccc(-c3cc(=O)cc(N4CCOCC4)o3)c1S2)c1ccccc1 (stereo not drawn) [Compound 41] | < 200 nM |
| COC(=O)CCCC(=O)Nc1ccc2c(c1)Cc1cccc(-c3cc(=O)cc(N4CCOCC4)o3)c1S2 [Compound 25] | < 200 nM |
| O=C(CCN(CCO)CCO)Nc1ccc2c(c1)Cc1cccc(-c3cc(=O)cc(N4CCOCC4)o3)c1S2 [Compound 72] | < 200 nM |
| O=C(CCN1CCCCC1)Nc1ccc2c(c1)Cc1cccc(-c3cc(=O)cc(N4CCOCC4)o3)c1S2 [Compound 69] | < 200 nM |
| Cn1nc(O)cc1C(=O)Nc1ccc2c(c1)Cc1cccc(-c3cc(=O)cc(N4CCOCC4)o3)c1S2 [Compound 35] | < 200 nM |
| CN1CCN(CC(=O)Nc2ccc3c(c2)Cc2cccc(-c4cc(=O)cc(N5CCOCC5)o4)c2S3)CC1 [Compound 53] | < 200 nM |
| Nc1ccc2c(c1)Cc1cccc(-c3cc(=O)cc(N4CCOCC4)o3)c1S2 [Compound 20, 2-(7-Amino-9H-thioxanthen-4-yl)-6-morpholin-4-yl-pyran-4-one] | < 200 nM |
| NCCNCC(=O)Nc1ccc2c(c1)Cc1cccc(-c3cc(=O)cc(N4CCOCC4)o3)c1S2 [Compound 57] | < 200 nM |
| CC(=O)OCC(=O)Nc1ccc2c(c1)Cc1cccc(-c3cc(=O)cc(N4CCOCC4)o3)c1S2 [Compound 40] | < 200 nM |
| O=C(O)CCC(=O)Nc1ccc2c(c1)Cc1cccc(-c3cc(=O)cc(N4CCOCC4)o3)c1S2 [Compound 48] | < 200 nM |
| O=C(Nc1ccc2c(c1)Cc1cccc(-c3cc(=O)cc(N4CCOCC4)o3)c1S2)c1cccnc1 [Compound 26] | < 200 nM |
| CN1CCN(CCC(=O)Nc2ccc3c(c2)Cc2cccc(-c4cc(=O)cc(N5CCOCC5)o4)c2S3)CC1 [Compound 71] | < 200 nM |

Now from value to molecule:

| IC50 | SMILES |
| --- | --- |
| < 200 nM | CCN(CC)CCC(=O)Nc1ccc2c(c1)Cc1cccc(-c3cc(=O)cc(N4CCOCC4)o3)c1S2 [Compound 83] |
| < 200 nM | CC1CN(C(=O)c2ccc3c(c2)Sc2cccc(-c4cc(=O)cc(N5CCOCC5)o4)c2S3)CC(C)O1 (stereo not drawn) [Compound 158] |
| < 200 nM | C[C@@H]1CN(C(=O)c2ccc3c(c2)Sc2cccc(-c4cc(=O)cc(N5CCOCC5)o4)c2S3)C[C@H](C)O1 [Compound 159] |
| < 200 nM | O=C(NCc1ccccn1)c1ccc2c(c1)Sc1cccc(-c3cc(=O)cc(N4CCOCC4)o3)c1S2 [Compound 170] |
| < 200 nM | O=C(NC1CCC1)c1ccc2c(c1)Sc1cccc(-c3cc(=O)cc(N4CCOCC4)o3)c1S2 [Compound 153] |
| < 200 nM | O=C(CCNCCO)Nc1ccc2c(c1)Cc1cccc(-c3cc(=O)cc(N4CCOCC4)o3)c1S2 [Compound 74] |
| < 200 nM | O=C(NCc1ccco1)c1ccc2c(c1)Sc1cccc(-c3cc(=O)cc(N4CCOCC4)o3)c1S2 [Compound 150] |
| < 200 nM | O=C(Nc1ccc(-c2cc(=O)cc(N3CCOCC3)o2)c2c1Cc1ccccc1S2)c1ccno1 [Compound 126] |
| < 200 nM | O=C(NCC1CCCO1)c1ccc2c(c1)Sc1cccc(-c3cc(=O)cc(N4CCOCC4)o3)c1S2 (stereo not drawn) [Compound 149] |
| < 200 nM | O=C(NCc1cccnc1)c1ccc2c(c1)Sc1cccc(-c3cc(=O)cc(N4CCOCC4)o3)c1S2 [Compound 171] |
| < 200 nM | O=C(O)c1ccc2c(c1)Sc1cccc(-c3cc(=O)cc(N4CCOCC4)o3)c1S2 [Compound 138, 6-(6-Morpholin-4-yl-4-oxo-4H-pyran-2-yl)-thianthrene-2-carboxylate sodium salt] |
| < 200 nM | CN1CCN(NC(=O)c2ccc3c(c2)Sc2cccc(-c4cc(=O)cc(N5CCOCC5)o4)c2S3)CC1 [Compound 164] |
| < 200 nM | CN(C)c1ccc(CNC(=O)c2ccc3c(c2)Sc2cccc(-c4cc(=O)cc(N5CCOCC5)o4)c2S3)cc1 [Compound 169] |
| < 200 nM | O=C(CCNCC1CCCO1)Nc1ccc2c(c1)Cc1cccc(-c3cc(=O)cc(N4CCOCC4)o3)c1S2 (stereo not drawn) [Compound 86] |
| < 200 nM | CN1CCCN(CCC(=O)Nc2ccc3c(c2)Cc2cccc(-c4cc(=O)cc(N5CCOCC5)o4)c2S3)CC1 [Compound 77] |
| < 200 nM | O=c1cc(-c2ccc(NS(=O)(=O)Cc3ccccc3)c3c2Sc2ccccc2C3)oc(N2CCOCC2)c1 [Compound 130] |

| IC50 | SMILES |
| --- | --- |
| < 200 nM | N#Cc1cccc(NC(=O)Nc2ccc(-c3cc(=O)cc(N4CCOCC4)o3)c3c2Cc2ccccc2S3)c1 [Compound 117] |
| < 200 nM | O=C(c1ccc2c(c1)Sc1cccc(-c3cc(=O)cc(N4CCOCC4)o3)c1S2)N1CCCC1 [Compound 156] |
| < 200 nM | CN(C)C(=O)c1ccc2c(c1)Sc1cccc(-c3cc(=O)cc(N4CCOCC4)o3)c1S2 [Compound 140] |
| < 200 nM | O=C(NCCc1ccccn1)c1ccc2c(c1)Sc1cccc(-c3cc(=O)cc(N4CCOCC4)o3)c1S2 [Compound 173] |
| < 200 nM | O=C(Nc1ccc(-c2cc(=O)cc(N3CCOCC3)o2)c2c1Cc1ccccc1S2)c1ccc(-c2ccccn2)s1 [Compound 110] |
| < 200 nM | CC(C)CNC(=O)c1ccc2c(c1)Sc1cccc(-c3cc(=O)cc(N4CCOCC4)o3)c1S2 [Compound 145] |
| < 200 nM | CCN(CC)CCCNC(=O)c1ccc2c(c1)Sc1cccc(-c3cc(=O)cc(N4CCOCC4)o3)c1S2 [Compound 182] |
| < 200 nM | Cc1nnsc1C(=O)Nc1ccc(-c2cc(=O)cc(N3CCOCC3)o2)c2c1Cc1ccccc1S2 [Compound 111] |
| < 200 nM | O=C(CCN1CCCCCC1)Nc1ccc2c(c1)Cc1cccc(-c3cc(=O)cc(N4CCOCC4)o3)c1S2 [Compound 79] |
| < 200 nM | O=C(NC1CCCC1)c1ccc2c(c1)Sc1cccc(-c3cc(=O)cc(N4CCOCC4)o3)c1S2 [Compound 155] |
| < 200 nM | O=C(NC1CCCCC1)c1ccc2c(c1)Sc1cccc(-c3cc(=O)cc(N4CCOCC4)o3)c1S2 [Compound 151] |
| < 200 nM | O=C(NCC(F)(F)F)c1ccc2c(c1)Sc1cccc(-c3cc(=O)cc(N4CCOCC4)o3)c1S2 [Compound 148] |
| < 200 nM | O=C(NCCN1CCN(Cc2ccccc2)CC1)c1ccc2c(c1)Sc1cccc(-c3cc(=O)cc(N4CCOCC4)o3)c1S2 [Compound 179] |
| < 200 nM | O=C(c1ccc2c(c1)Sc1cccc(-c3cc(=O)cc(N4CCOCC4)o3)c1S2)N1CCOCC1 [Compound 160] |
| < 200 nM | O=C(Nc1ccc(-c2cc(=O)cc(N3CCOCC3)o2)c2c1Cc1ccccc1S2)c1ccc2c(c1)OCO2 [Compound 115] |
